Data: patent publication US10793580B2, “Substituted pyrazoloazepin-8-ones and their use as phosphodiesterase inhibitors” (LEO Pharma A/S, priority 2016, dated 2020)

Target: human PDE4D catalytic domain (Homo sapiens (Human), UniProt Q08499)
Assay: PDE4 Assay (TR-FRET, FAM-cAMP cleavage)
Format: biochemical
Conditions: human PDE4D catalytic domain (UniProt Q08499 [S380-L740]); 50% inhibition of substrate cleavage; read-out: PDE4 IC50 range
Procedure, shortened: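 PDE4D catalytic domain (S380-L740) incubated briefly with unlabelled cAMP plus FAM-cAMP and titrated compound. Reaction stopped with binding buffer holding metal-ion nanoparticles that bind AMP phospho groups and Tb donor, and AMP formation read by TR-FRET. IC50 versus controls, reported as ranges (nM).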

human PDE4D catalytic domain, sequence (Q08499 380-740): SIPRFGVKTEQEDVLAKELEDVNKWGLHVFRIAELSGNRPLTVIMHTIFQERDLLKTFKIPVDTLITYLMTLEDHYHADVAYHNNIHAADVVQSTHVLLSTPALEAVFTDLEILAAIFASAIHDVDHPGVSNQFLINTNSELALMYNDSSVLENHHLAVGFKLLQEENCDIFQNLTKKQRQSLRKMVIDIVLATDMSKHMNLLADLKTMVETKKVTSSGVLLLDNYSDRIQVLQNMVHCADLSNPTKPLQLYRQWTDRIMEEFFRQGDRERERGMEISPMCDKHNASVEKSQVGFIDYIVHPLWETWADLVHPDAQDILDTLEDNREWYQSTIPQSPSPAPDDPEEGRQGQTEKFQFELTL

SMILES	IC50 [nM]
CCn1nc(C[C@@H](C)COC(=O)c2cccc(S(=O)(=O)C(C)C)c2)c2c1C(=O)NCC1(CCOCC1)C2 [Example 159, [(2R)-3-(1-ethyl-8-oxo-spiro[6,7-dihydro-4H-pyrazolo[3,4-c]azepine-5,4′-tetrahydropyran]-3-yl)-2-methyl-propyl] 3-isopropylsulfonylbenzoate]	< 100
CCn1nc(C[C@@H](C)COC(=O)c2ccc(S(=O)(=O)C(C)C)cc2)c2c1C(=O)NCC1(CCOCC1)C2 [Example 160, [(2R)-3-(1-ethyl-8-oxo-spiro[6,7-dihydro-4H-pyrazolo[3,4-c]azepine-5,4′-tetrahydropyran]-3-yl)-2-methyl-propyl] 4-isopropylsulfonylbenzoate]	< 100
CCn1nc(C[C@@H](C)COC(=O)c2ccc(S(=O)(=O)N(C)C)cc2)c2c1C(=O)NCC1(CCOCC1)C2 [Example 161, [(2R)-3-(1-ethyl-8-oxo-spiro[6,7-dihydro-4H-pyrazolo[3,4-c]azepine-5,4′-tetrahydropyran]-3-yl)-2-methyl-propyl] 4-(di-methylsulfamoyl)benzoate]	< 100
CCn1nc(C[C@@H](C)COC(=O)c2ccc(S(=O)(=O)C3CCCC3)cc2)c2c1C(=O)NCC1(CCOCC1)C2 [Example 162, [(2R)-3-(1-ethyl-8-oxo-spiro[6,7-dihydro-4H-pyrazolo[3,4-c]azepine-5,4′-tetrahydropyran]-3-yl)-2-methyl-propyl] 4-cyclopentylsulfonylbenzoate]	< 100
CCn1nc(C[C@@H](C)COC(=O)c2cccc(S(=O)(=O)N3CCCC3)c2)c2c1C(=O)NCC1(CCOCC1)C2 [Example 163, [(2R)-3-(1-ethyl-8-oxo-spiro[6,7-dihydro-4H-pyrazolo[6,7-c]azepine-5,4′-tetrahydropyran]-3-yl)-2-methyl-propyl] 3-pyrrolidin-1-ylsulfonylbenzoate]	< 100
CCn1nc(C[C@@H](C)COC(=O)c2cccc(S(=O)(=O)N3CCOCC3)c2)c2c1C(=O)NCC1(CCOCC1)C2 [Example 164, [(2R)-3-(1-ethyl-8-oxo-spiro[6,7-dihydro-4H-pyrazolo[3,4-c]azepine-5,4′-tetrahydropyran]-3-yl)-2-methyl-propyl] 3-morpholinosulfonylbenzoate]	< 100
CCn1nc(C[C@@H](C)COC(=O)c2ccc(S(=O)(=O)N3CCOCC3)cc2)c2c1C(=O)NCC1(CCOCC1)C2 [Example 165, [(2R)-3-(1-ethyl-8-oxo-spiro[6,7-dihydro-4H-pyrazolo[3,4-c]azepine-5,4′-tetrahydropyran]-3-yl)-2-methyl-propyl] 4-morpholinosulfonylbenzoate]	< 100
CCn1nc(C[C@@H](C)COC(=O)c2cccc(S(=O)(=O)N3CCN(C(C)=O)CC3)c2)c2c1C(=O)NCC1(CCOCC1)C2 [Example 166, [(2R)-3-(1-ethyl-8-oxo-spiro[6,7-dihydro-4H-pyrazolo[3,4-c]azepine-5,4′-tetrahydropyran]-3-yl)-2-methyl-propyl] 3-(4-acetylpiperazin-1-yl)sulfonylbenzoate]	< 100
CCn1nc(C[C@@H](C)COC(=O)c2ccc(S(=O)(=O)N3CCN(C(C)=O)CC3)cc2)c2c1C(=O)NCC1(CCOCC1)C2 [Example 167, [(2R)-3-(1-ethyl-8-oxo-spiro[6,7-dihydro-4H-pyrazolo[3,4-c]azepine-5,4′-tetrahydropyran]-3-yl)-2-methyl-propyl] 4-(4-acetylpiperazin-1-yl)sulfonylbenzoate]	< 100
CCn1nc(C[C@@H](C)COC(=O)c2ccc(C(N)=O)cc2)c2c1C(=O)NCC1(CCOCC1)C2 [Example 169, [(2R)-3-(1-ethyl-8-oxo-spiro[6,7-dihydro-4H-pyrazolo[3,4-c]azepine-5,4′-tetrahydropyran]-3-yl)-2-methyl-propyl] 4-carbamoylbenzoate]	< 100
CCn1nc(C[C@@H](C)COC(=O)c2ccc(C(=O)NC)cc2)c2c1C(=O)NCC1(CCOCC1)C2 [Example 170, [(2R)-3-(1-ethyl-8-oxo-spiro[6,7-dihydro-4H-pyrazolo[3,4-c]azepine-5,4′-tetrahydropyran]-3-yl)-2-methyl-propyl] 4-(methylcarbamoyl)benzoate]	< 100
CCn1nc(C[C@@H](C)COC(=O)c2ccc(C(=O)N(C)C)cc2)c2c1C(=O)NCC1(CCOCC1)C2 [Example 171, [(2R)-3-(1-ethyl-8-oxo-spiro[6,7-dihydro-4H-pyrazolo[3,4-c]azepine-5,4′-tetrahydropyran]-3-yl)-2-methyl-propyl] 4-(di-methylcarbamoyl)benzoate]	< 100
CCn1nc(C[C@@H](C)COC(=O)c2ccc(C(=O)N3CCCC3)cc2)c2c1C(=O)NCC1(CCOCC1)C2 [Example 172, [(2R)-3-(1-ethyl-8-oxo-spiro[6,7-dihydro-4H-pyrazolo[3,4-c]azepine-5,4′-tetrahydropyran]-3-yl)-2-methyl-propyl] 4-(pyrrolidine-1-carbonyl)benzoate]	< 100
CCn1nc(C[C@@H](C)COC(=O)c2ccc(C(=O)N3CCCCC3)cc2)c2c1C(=O)NCC1(CCOCC1)C2 [Example 173, [(2R)-3-(1-ethyl-8-oxo-spiro[6,7-dihydro-4H-pyrazolo[3,4-c]azepine-5,4′-tetrahydropyran]-3-yl)-2-methyl-propyl] 4-(piperidine-1-carbonyl)benzoate]	< 100
CCn1nc(C[C@@H](C)COC(=O)c2ccc(C(=O)N3CCOCC3)cc2)c2c1C(=O)NCC1(CCOCC1)C2 [Example 174, [(2R)-3-(1-ethyl-8-oxo-spiro[6,7-dihydro-4H-pyrazolo[3,4-c]azepine-5,4′-tetrahydropyran]-3-yl)-2-methyl-propyl] 4-(morpholine-4-carbonyl)benzoate]	< 100
CCn1nc(C[C@@H](C)COC(=O)c2ccc(C(=O)N3CCN(C)CC3)cc2)c2c1C(=O)NCC1(CCOCC1)C2 [Example 175, [(2R)-3-(1-ethyl-8-oxo-spiro[6,7-dihydro-4H-pyrazolo[3,4-c]azepine-5,4′-tetrahydropyran]-3-yl)-2-methyl-propyl] 4-(4-methylpiperazine-1-carbonyl)benzoate]	< 100
CCn1nc(C[C@@H](C)COC(=O)c2ccc(C(=O)N3CCN(C(C)=O)CC3)cc2)c2c1C(=O)NCC1(CCOCC1)C2 [Example 176, [(2R)-3-(1-ethyl-8-oxo-spiro[6,7-dihydro-4H-pyrazolo[3,4-c]azepine-5,4′-tetrahydropyran]-3-yl)-2-methyl-propyl] 4-(4-acetylpiperazine-1-carbonyl)benzoate]	< 100
CCn1nc(C[C@@H](C)COC(=O)c2cccc(C(N)=O)c2)c2c1C(=O)NCC1(CCOCC1)C2 [Example 178, [(2R)-3-(1-ethyl-8-oxo-spiro[6,7-dihydro-4H-pyrazolo[3,4-c]azepine-5,4′-tetrahydropyran]-3-yl)-2-methyl-propyl] 3-carbamoylbenzoate]	< 100
CCn1nc(C[C@@H](C)COC(=O)c2cccc(C(=O)NC)c2)c2c1C(=O)NCC1(CCOCC1)C2 [Example 179, [(2R)-3-(1-ethyl-8-oxo-spiro[6,7-dihydro-4H-pyrazolo[3,4-c]azepine-5,4′-tetrahydropyran]-3-yl)-2-methyl-propyl] 3-(methylcarbamoyl)benzoate]	< 100
CCn1nc(C[C@@H](C)COC(=O)c2cccc(C(=O)N(C)C)c2)c2c1C(=O)NCC1(CCOCC1)C2 [Example 180, [(2R)-3-(1-ethyl-8-oxo-spiro[6,7-dihydro-4H-pyrazolo[3,4-c]azepine-5,4′-tetrahydropyran]-3-yl)-2-methyl-propyl] 3-(di-methylcarbamoyl)benzoate]	< 100
